Measurements from patent US20130066055A1, “NEW BINDER-DRUG CONJUGATES (ADCS) AND USE THEREOF” (Bayer Intellectual Property GmbH, priority 2011, published 2013).
Counter-ions that a name gives are not always drawn. Square brackets hold non-standard residues; d marks the D form. Peptide text beside a SMILES is read from it. * marks the point of attachment. X2 = CC(C)[C@@H](C(=O)*)N(C)CCCCCCN1C(=O)CC(SC[C@H](N)C(=O)O)C1=O; X1 = CC(C)[C@@H](C(=O)*)N(C)CCCCCC(=O)NCCCC[C@H](N)C(=O)O; Dolaproine = CO[C@@H]([C@@H]1CCCN1)[C@@H](C)C(=O)O; Dil = CC[C@H](C)[C@H](NC)[C@@H](CC(=O)O)OC; X5 = C[C@@H](N*)[C@@H](O)c1ccccc1; Oxazinan2yl(1,2) = C1CCN(*)OC1; NMeV = CN[C@H](C(=O)O)C(C)C

Key:
[1] = tested on: Caco-2 cells; assay: Caco-2 flux assay for cell permeability; format: in vitro ADME; conditions: basal to apical, 2 hours
Protocol: (§1) The cell permeability of a substance can be investigated by means of in vitro testing in a flux assay using Caco-2 cells [M. D. Troutman and D. R. Thakker, Pharm. Res. 20 (8), 1210-1224 (2003)]. For this purpose, the cells were cultured for 15-16 days on 24-well filter plates. For the determination of permeation, the respective working example was applied in a HEPES buffer to the cells either apically (A) or basally (B) and incubated for 2 hours. After 0 hours and after 2 hours, samples were taken from the cis and trans compartments. The samples were separated by HPLC (Agilent 1200, Böblingen, Germany) using reverse phase columns. The HPLC system was coupled via a Turbo Ion Spray Interface to a Triple Quadropol mass spectrometer API 4000 (Applied Biosystems Applera, Darmstadt, Germany). The permeability was evaluated on the basis of a Papp value, which was calculated using the formula published by Schwab et al. [D. Schwab et al., J. Med. Chem. 46, 1716-1725 (2003)].

[2] = tested on: tubulin; assay: Fluorescence-based microtubule (tubulin) polymerization assay; format: biochemical
Protocol: Tubulin polymerization was investigated using the “Fluorescence-based Microtubule Polymerisation Assay Kit” from Cytoskeleton (Denver, Colo., USA; order number: BK011). With this assay, GTP is added to unpolymerized tubulin, allowing polymerization to take place spontaneously. The assay is based on the binding of the fluorophore 4′,6-di-amidino-2-phenylindole (DAPI) to tubulin. Free and bound DAPI can be differentiated on the basis of different emission spectra.
[…] In addition to the buffer control, paclitaxel, with a polymerization-increasing effect, and vinblastin, with a polymerization inhibiting effect, were run additionally as assay controls. Measurement was carried out using 96-well plates with a half base area. The kinetics of the tubulin polymerization were monitored in a Fluorimeter at 37° C. for 1 hour. The excitation wavelength was 355 nm, and emission was monitored at 460 nm. For the region of linear increase within the first 10 minutes, a calculation was made of the change in fluorescence per minute (ΔF/min), which represents the polymerization rate of the microtubuli. The potency of the test substances was quantified on the basis of their respective reduction of the polymerization rate.

[3] = Caco-2 flux assay for cell permeability; format: in vitro ADME; conditions: human, Caco-2 cells, basal to apical
Protocol: as §1

[4] = target: T1, P-glycoprotein (P-gp, ABCB1) (Homo sapiens, UniProt P08183); assay: Flux assay in P-gp overexpressing L-MDR1 cells; format: in vitro ADME; conditions: LLC-PK1, basal to apical
T1 construct: expressed in transfected cells; host or cells: LLC-PK1 (pig kidney) cells transfected with human MDR1 (L-MDR1 cells)
Protocol: The substrate properties of a substance for P-gp (ABCB1) were determined by means of a flux assay using LLC-PK1 cells which overexpress P-gp (L-MDR1 cells) [A. H. Schinkel et al., J. Clin. Invest. 96, 1698-1705 (1995)]. For this purpose, the LLC-PK1 cells or L-MDR1 cells were cultured on 96-well filter plates for 3-4 days. For determination of the permeation, the respective test substance, alone or in the presence of an inhibitor (such as Ivermectin or Verapamil, for example), was applied in a HEPES buffer to the cells either apically (A) or basally (B) and incubated for 2 hours. After 0 hours and after 2 hours, samples were taken from the cis and trans compartments. The samples were separated by HPLC using reverse phase columns. The HPLC system was coupled via a Turbo Ion Spray Interface to a Triple Quadropol mass spectrometer API 3000 (Applied Biosystems Applera, Darmstadt, Germany). The permeability was evaluated on the basis of a Papp value which was calculated using the formula published by Schwab et al. [D. Schwab et al., J. Med. Chem. 46, 1716-1725 (2003)].

T1 sequence (P08183 whole entry): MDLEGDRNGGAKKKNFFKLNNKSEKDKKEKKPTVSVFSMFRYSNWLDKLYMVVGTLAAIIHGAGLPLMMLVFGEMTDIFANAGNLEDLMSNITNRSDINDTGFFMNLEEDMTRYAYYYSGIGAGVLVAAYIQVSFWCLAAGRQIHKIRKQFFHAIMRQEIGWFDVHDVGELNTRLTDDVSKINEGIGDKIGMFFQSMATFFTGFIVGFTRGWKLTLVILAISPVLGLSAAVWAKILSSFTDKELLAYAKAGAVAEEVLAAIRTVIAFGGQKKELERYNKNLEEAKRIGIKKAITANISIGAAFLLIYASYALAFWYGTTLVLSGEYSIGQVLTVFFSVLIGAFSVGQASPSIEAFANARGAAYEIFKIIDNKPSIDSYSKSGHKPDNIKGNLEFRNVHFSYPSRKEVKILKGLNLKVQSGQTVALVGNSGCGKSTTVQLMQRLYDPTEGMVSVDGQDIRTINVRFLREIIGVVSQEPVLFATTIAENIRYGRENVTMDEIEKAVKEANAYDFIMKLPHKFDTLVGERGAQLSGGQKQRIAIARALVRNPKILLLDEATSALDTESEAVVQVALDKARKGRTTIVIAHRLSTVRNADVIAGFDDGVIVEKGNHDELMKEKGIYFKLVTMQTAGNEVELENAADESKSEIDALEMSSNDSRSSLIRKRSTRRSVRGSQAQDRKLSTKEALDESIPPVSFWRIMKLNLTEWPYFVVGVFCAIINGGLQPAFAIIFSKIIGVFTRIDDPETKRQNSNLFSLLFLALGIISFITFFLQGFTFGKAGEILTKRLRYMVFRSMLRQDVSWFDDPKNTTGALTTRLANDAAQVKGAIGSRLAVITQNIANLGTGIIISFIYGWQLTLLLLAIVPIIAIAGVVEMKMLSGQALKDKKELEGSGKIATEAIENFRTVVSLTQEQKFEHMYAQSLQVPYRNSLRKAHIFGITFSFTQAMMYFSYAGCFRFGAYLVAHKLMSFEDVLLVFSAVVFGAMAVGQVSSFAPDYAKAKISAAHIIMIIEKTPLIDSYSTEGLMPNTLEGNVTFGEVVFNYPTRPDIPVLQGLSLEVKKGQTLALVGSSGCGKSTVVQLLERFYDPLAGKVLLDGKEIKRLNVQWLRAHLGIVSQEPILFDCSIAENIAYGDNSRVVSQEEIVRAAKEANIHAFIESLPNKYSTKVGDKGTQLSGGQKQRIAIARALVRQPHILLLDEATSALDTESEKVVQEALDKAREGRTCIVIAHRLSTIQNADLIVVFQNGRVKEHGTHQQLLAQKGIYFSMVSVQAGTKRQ

| Compound | Papp (B-A) [1] [×10⁻⁶ cm/s] | Tubulin polymerization in the presence of toxophore in [%]. Tubulin polymerization rate at 1 μM MMAF set at 100% ([2]; toxophore 1 μM) [%] | Tubulin polymerization in the presence of toxophore in [%]. Tubulin polymerization rate at 1 μM MMAF set at 100% ([2]; toxophore 10 μM) [%] | Papp B→A at 2 h [3] [×10⁻⁶ cm/s] | Papp B→A at 2 h [4] [×10⁻⁶ cm/s] | inhibition of tubulin polymerization [2] |
| --- | --- | --- | --- | --- | --- | --- |
| CC[C@H](C)[C@@H]([C@@H](CC(=O)N1CCC[C@H]1[C@H](OC)[C@@H](C)C(=O)N[C@H](C)[C@@H](O)c1ccccc1)OC)N(C)C(=O)[C@@H](NC(=O)[C@@H](NC)C(C)C)C(C)C [MMAE, monomethylauristatin E, reference compound] (H-[NMeV]V[Dil][Dolaproine]-X5) | 7.3 | – | – | – | – | – |
| CC[C@H](C)[C@@H]([C@@H](CC(=O)N1CCC[C@H]1[C@H](OC)[C@@H](C)C(=O)N[C@@H](Cc1c[nH]c2ccccc12)C(N)=O)OC)N(C)C(=O)[C@@H](NC(=O)[C@H](C(C)C)N(C)CCCC(=O)NNC(=O)CCCCCN1C(=O)CC(SC[C@H](N)C(=O)O)C1=O)C(C)C (stereo partly drawn) [Example 71, N-(4-{2-[6-(3-{[(2R)-2-Amino-2-carboxyethyl]sulphanyl}-2,5-dioxopyrrolidin-1-yl)hexanoyl]hydrazino}-4-oxobutyl)-N-methyl-L-valyl-N-[(3R,4S,5S)-1-{(2S)-2-[(1R,2R)-3-{[(2S)-1-amino-3-(1H-indol-3-yl)-1-oxopropan-2-yl]amino}-1-methoxy-2-methyl-3-oxopropyl]pyrrolidin-1-yl}-3-methoxy-5-methyl-1-oxoheptan-4-yl]-N-methyl-L-valinamide] | – | 88 | 25 | 0.2 | 0.3 | – |
| CC[C@H](C)[C@@H]([C@@H](CC(=O)N1CCC[C@H]1[C@H](OC)[C@@H](C)C(=O)N[C@@H](Cc1c[nH]c2ccccc12)C(=O)O)OC)N(C)C(=O)[C@@H](NC(=O)[C@H](C(C)C)N(C)CCCCCCN1C(=O)CC(SC[C@H](N)C(=O)O)C1=O)C(C)C (stereo partly drawn) [Example 75, N-[6-(3-{[(2R)-2-Amino-2-carboxyethyl]sulphanyl}-2,5-dioxopyrrolidin-1-yl)hexyl]-N-methyl-L-valyl-N-[(3R,4S,5S)-1-{(2S)-2-[(1R,2R)-3-{[(1S)-1-carboxy-2-(1H-indol-3-yl)ethyl]amino}-1-methoxy-2-methyl-3-oxopropyl]pyrrolidin-1-yl}-3-methoxy-5-methyl-1-oxoheptan-4-yl]-N-methyl-L-valinamide] (X2-V[Dil][Dolaproine]W-OH) | – | 107 | 25 | 0.1 | 0.4 | – |
| CC[C@H](C)[C@@H]([C@@H](CC(=O)N1CCC[C@H]1[C@H](OC)[C@@H](C)C(=O)N[C@@H](Cc1ccccc1)C(=O)O)OC)N(C)C(=O)[C@@H](NC(=O)[C@@H](NC)C(C)C)C(C)C [MMAF, Monomethylauristatin F, reference compound] (H-[NMeV]V[Dil][Dolaproine]F-OH) | 7.3 | 100 | 34 | – | – | inhibit tubulin polymerization as a function of their concentration |
| CC[C@H](C)[C@@H]([C@@H](CC(=O)N1CCC[C@H]1[C@H](OC)[C@@H](C)C(=O)N[C@@H](Cc1c[nH]c2ccccc12)C(N)=O)OC)N(C)C(=O)[C@@H](NC(=O)[C@H](C(C)C)N(C)CCCCCCN1C(=O)CC(SC[C@H](N)C(=O)O)C1=O)C(C)C (stereo partly drawn) [Example 74, N-[6-(3-{[(2R)-2-Amino-2-carboxyethyl]sulphanyl}-2,5-dioxopyrrolidin-1-yl)hexyl]-N-methyl-L-valyl-N-[(3R,4S,5S)-1-{(2S)-2-[(1R,2R)-3-{[(2S)-1-amino-3-(1H-indol-3-yl)-1-oxopropan-2-yl]amino}-1-methoxy-2-methyl-3-oxopropyl]pyrrolidin-1-yl}-3-methoxy-5-methyl-1-oxoheptan-4-yl]-N-methyl-L-valinamide] (X2-V[Dil][Dolaproine]W-NH2) | – | 117 | 64 | 0.5 | 0.36 | – |
| CC[C@H](C)[C@@H]([C@@H](CC(=O)N1CCC[C@H]1[C@H](OC)[C@@H](C)C(=O)N[C@@H](Cc1c[nH]c2ccccc12)C(=O)O)OC)N(C)C(=O)[C@@H](NC(=O)[C@H](C(C)C)N(C)CCCC(=O)NNC(=O)CCCCCN1C(=O)CC(SC[C@H](N)C(=O)O)C1=O)C(C)C (stereo partly drawn) [Example 72, N-(4-{2-[6-(3-{[(2R)-2-Amino-2-carboxyethyl]sulphanyl}-2,5-dioxopyrrolidin-1-yl)hexanoyl]hydrazino}-4-oxobutyl)-N-methyl-L-valyl-N-[(3R,4S,5S)-1-{(2S)-2-[(1R,2R)-3-{[(1S)-1-carboxy-2-(1H-indol-3-yl)ethyl]amino}-1-methoxy-2-methyl-3-oxopropyl]pyrrolidin-1-yl}-3-methoxy-5-methyl-1-oxoheptan-4-yl]-N-methyl-L-valinamide] | – | 109 | 27 | 0.16 | 0.36 | – |
| CC[C@H](C)[C@@H]([C@@H](CC(=O)N1CCC[C@H]1[C@H](OC)[C@@H](C)C(=O)N[C@@H](Cc1c[nH]c2ccccc12)C(=O)N1CCCCO1)OC)N(C)C(=O)[C@@H](NC(=O)[C@H](C(C)C)N(C)CCCCCC(=O)NCCCC[C@H](N)C(=O)O)C(C)C [Example 115, N-(6-{[(5S)-5-Amino-5-carboxypentyl]amino}-6-oxohexyl)-N-methyl-L-valyl-N-[(3R,4S,5S)-1-{(2S)-2-[(1R,2R)-3-{[(2S)-3-(1H-indol-3-yl)-1-(1,2-oxazinan-2-yl)-1-oxopropan-2-yl]amino}-1-methoxy-2-methyl-3-oxopropyl]pyrrolidin-1-yl}-3-methoxy-5-methyl-1-oxoheptan-4-yl]-N-methyl-L-valinamide trifluoroacetate] (X1-V[Dil][Dolaproine]W-{Oxazinan2yl(1,2)}) | – | 45 | 1 | 0.2 | 0.6 | – |
